In patent publication US20130217664A1, “NOVEL COMPOUNDS USEFUL FOR THE TREATMENT OF DEGENERATIVE AND INFLAMMATORY DISEASES” (priority 2012, published 2013):
Like-named read-outs stand apart in the source and are kept apart here.

How the values were obtained:
human JAK3 = biological target: T1, human JAK3 (Homo sapiens, UniProt P52333); test: JAK3 inhibition assay; type: biochemical; conditions: recombinant human JAK3 catalytic domain; polyGT substrate
T1 construct: catalytic domain (amino acids 781-1124; catalog number PV3855); purchased Invitrogen PV3855
T1 sequence (P52333 781-1124): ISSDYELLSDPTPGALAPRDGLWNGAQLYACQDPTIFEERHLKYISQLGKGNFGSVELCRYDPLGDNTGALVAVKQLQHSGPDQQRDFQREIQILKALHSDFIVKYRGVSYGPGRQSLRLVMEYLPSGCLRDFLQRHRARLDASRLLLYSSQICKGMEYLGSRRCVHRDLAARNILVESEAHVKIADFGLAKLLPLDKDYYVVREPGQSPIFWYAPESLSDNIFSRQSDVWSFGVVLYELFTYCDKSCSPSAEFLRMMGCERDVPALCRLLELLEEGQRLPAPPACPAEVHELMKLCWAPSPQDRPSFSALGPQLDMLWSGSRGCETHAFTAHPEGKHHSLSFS
In short: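 Radiometric kinase assay: 0.5 ng JAK3 with 2.5 μg polyGT in Tris pH 7.5/MgCl2 buffer, 1 μM ATP plus 0.25 μCi 33P-γ-ATP, 1% DMSO, 45 min at 30 °C, stopped with phosphoric acid.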

[1] = tested on: pSTAT1(2)-luciferase reporter in HeLa cells triggered with human OSM; test: JAK-STAT signalling assay; type: cell-based; conditions: read-out: JAK-STAT IC50
In short: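 Compound added 60 min before 33 ng/mL (final) human OSM; after overnight stimulation at 37 °C, luciferase signal from a transiently transfected pSTAT1(2) reporter in HeLa cells was read, with LacZ as internal control. EC50 derived from percent-inhibition dose-response curves.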

human JAK1 = biological target: T2, human JAK1 (Homo sapiens, UniProt P23458); test: JAK1 inhibition assay (polyGT substrate / Ulight-JAK1 peptide); type: biochemical; conditions: recombinant human JAK1 catalytic domain; polyGT or Ulight-JAK1 peptide assay
T2 construct: catalytic domain, amino acids 866-1154; catalog number PV4774; purchased Invitrogen PV4774
T2 sequence (P23458 866-1154): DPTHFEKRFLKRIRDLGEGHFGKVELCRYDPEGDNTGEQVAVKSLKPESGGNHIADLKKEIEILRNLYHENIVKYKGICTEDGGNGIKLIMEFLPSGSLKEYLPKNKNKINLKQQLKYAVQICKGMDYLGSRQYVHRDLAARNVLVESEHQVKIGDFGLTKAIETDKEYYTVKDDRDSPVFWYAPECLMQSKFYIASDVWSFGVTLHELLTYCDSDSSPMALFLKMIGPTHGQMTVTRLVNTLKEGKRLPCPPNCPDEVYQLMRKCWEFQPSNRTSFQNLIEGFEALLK
In short: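 Signal scaled between vehicle and 10 μM staurosporine. Radiometric polyGT reactions ran 45 min at 30 °C, counted after phosphoric-acid stop. Ulight peptide reactions ran 60 min at room temperature, fluorescence read after adding Eu-PT66 detection mix with EDTA.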

[2] = Homo sapiens, HeLa, HeLa cells, pSTAT1(2)-luciferase reporter, human OSM 33 ng/mL
[3] = HeLa cells, pSTAT1(2)-luciferase reporter, human OSM 33 ng/mL

SMILES: CCc1cn(CCC#N)nc1N(C)c1cc2c(cn1)ncn2C [Compound 316, 3-{4-Ethyl-3-[methyl-(1-methyl-1H-imidazo[4,5-c]pyridin-6-yl)-amino]-pyrazol-1-yl}-propionitrile]
- IC50 (human JAK3): > 1000 nM
- IC50 ([1]; Homo sapiens, HeLa): > 1000 nM
- IC50 (human JAK1): > 1000 nM

SMILES: CCc1cc(CN(C)S(C)(=O)=O)c(F)cc1N(C)c1cc2c(cn1)ncn2C [Compound 319, N-{5-Ethyl-2-fluoro-4-[methyl-(1-methyl-1H-imidazo[4,5-c]pyridin-6-yl)-amino]-benzyl}-N-methyl-methanesulfonamide]
- IC50 (human JAK3): 0.01 to 100 nM
- IC50 [1, 2]: 501 to 1000 nM
- IC50 (human JAK1): 0.01 to 100 nM

SMILES: CN(c1cc2c(cn1)ncn2C)c1ccc(CNC(=O)C(F)F)cc1F [Compound 320]
- IC50 (human JAK3): 501 to 1000 nM
- IC50 [1, 2]: > 1000 nM
- IC50 (human JAK1): 0.01 to 100 nM

SMILES: CCc1cc(C#N)cc(F)c1N(C)c1cc2c(cn1)ncn2C [Compound 322, 3-Ethyl-5-fluoro-4-[methyl-(1-methyl-M-imidazo[4,5-c]pyridin-6-yl)-amino]-benzonitrile]
- IC50 (human JAK3): > 1000 nM
- IC50 [1, 2]: > 1000 nM
- IC50 (human JAK1): 0.01 to 100 nM

SMILES: CCc1cc(CNS(C)(=O)=O)cc(F)c1N(C)c1cc2c(cn1)ncn2C [Compound 323, N-{3-Ethyl-5-fluoro-4-[methyl-(1-methyl-1H-imidazo[4,5-c]pyridin-6-yl)-amino]-benzyl}-methanesulfonamide]
- IC50 (human JAK3): 0.01 to 100 nM
- IC50 [1, 2]: 1 to 500 nM
- IC50 (human JAK1): 0.01 to 100 nM

SMILES: CCc1cc(CNS(=O)(=O)C(F)F)cc(F)c1N(C)c1cc2c(cn1)ncn2C [Compound 324, N-{3-Ethyl-5-fluoro-4-[methyl-(1-methyl-1H-imidazo[4,5-c]pyridin-6-yl)-amino]-benzyl}-C,C-difluoro-methanesulfonamide]
- IC50 (human JAK3): 0.01 to 100 nM
- IC50 [1, 2]: 1 to 500 nM
- IC50 (human JAK1): 0.01 to 100 nM

SMILES: CCc1cc(CNS(C)(=O)=O)c(F)cc1N(C)c1cc2c(cn1)ncn2C [Compound 325, N-{5-Ethyl-2-fluoro-4-[methyl-(1-methyl-1H-imidazo[4,5-c]pyridin-6-yl)-amino]-benzyl}-methanesulfonamide]
- IC50 (human JAK3): 101 to 500 nM
- IC50 [1, 2]: 1 to 500 nM
- IC50 (human JAK1): 0.01 to 100 nM

SMILES: CCc1cc(CNC(=O)C(F)F)c(F)cc1N(C)c1cc2c(cn1)ncn2C [Compound 326, N-{5-Ethyl-2-fluoro-4-[methyl-(1-methyl-M-imidazo[4,5-c]pyridin-6-yl)-amino]-benzyl}-2,2-difluoro-acetamide]
- IC50 (human JAK3): 101 to 500 nM
- IC50 [1, 2]: 501 to 1000 nM
- IC50 (human JAK1): 0.01 to 100 nM

SMILES: CCc1cc(CNS(=O)(=O)C(F)F)c(F)cc1N(C)c1cc2c(cn1)ncn2C [Compound 327, N-{5-Ethyl-2-fluoro-4-[methyl-(1-methyl-M-imidazo[4,5-c]pyridin-6-yl)-amino]-benzyl}-C,C-difluoro-methanesulfonamide]
- IC50 (human JAK3): 0.01 to 100 nM
- IC50 [1, 2]: 1 to 500 nM
- IC50 (human JAK1): 0.01 to 100 nM

SMILES: CCc1cc(C2CN(S(C)(=O)=O)C2)ncc1N(C)c1cc2c(cn1)ncn2C [Compound 328, [4-Ethyl-6-(1-methanesulfonyl-azetidin-3-yl)-pyridin-3-yl]-methyl-(1-methyl-1H-imidazo[4,5-c]pyridin-6-yl)-amine]
- IC50 (human JAK3): > 1000 nM
- IC50 [1, 3]: > 1000 nM
- IC50 (human JAK1): 0.01 to 100 nM

SMILES: CCc1cc(C2CN(S(=O)(=O)C(F)F)C2)ncc1N(C)c1cc2c(cn1)ncn2C [Compound 329, {6-[1-(Difluoro-methanesulfonyl)-azetidin-3-yl]-4-ethyl-pyridin-3-yl}-methyl-(1-methyl-1H-imidazo[4,5-c]pyridin-6-yl)-amine]
- IC50 (human JAK3): > 1000 nM
- IC50 [1, 3]: 1 to 500 nM
- IC50 (human JAK1): 0.01 to 100 nM

SMILES: CCc1cc(C2CN(S(=O)(=O)C(C)C)C2)ncc1N(C)c1cc2c(cn1)ncn2C [Compound 330, {4-Ethyl-6-[1-(propane-2-sulfonyl)-azetidin-3-yl]-pyridin-3-yl}-methyl-(1-methyl-1H-imidazo[4,5-c]pyridin-6-yl)-amine]
- IC50 (human JAK3): > 1000 nM
- IC50 [1, 3]: > 1000 nM
- IC50 (human JAK1): 0.01 to 100 nM

SMILES: CCc1cc(C2CN(CC#N)C2)ncc1N(C)c1cc2c(cn1)ncn2C [Compound 331, (3-{4-Ethyl-5-[methyl-(1-methyl-1H-imidazo[4,5-c]pyridin-6-yl)-amino]-pyridin-2-yl}-azetidin-1-yl)-acetonitrile]
- IC50 (human JAK3): > 1000 nM
- IC50 [1, 3]: > 1000 nM
- IC50 (human JAK1): 0.01 to 100 nM

SMILES: CCc1cc(C2CN(C(C)=O)C2)ncc1N(C)c1cc2c(cn1)ncn2C [Compound 332, 1-(3-{4-Ethyl-5-[methyl-(1-methyl-1H-imidazo[4,5-c]pyridin-6-yl)-amino]-pyridin-2-yl}-azetidin-1-yl)-ethanone]
- IC50 (human JAK3): > 1000 nM
- IC50 [1, 3]: > 1000 nM
- IC50 (human JAK1): 101 to 500 nM

SMILES: CCc1cc(C2CN(C(=O)C(F)F)C2)ncc1N(C)c1cc2c(cn1)ncn2C [Compound 333, 1-(3-{4-Ethyl-5-[methyl-(1-methyl-1H-imidazo[4,5-c]pyridin-6-yl)-amino]-pyridin-2-yl}-azetidin-1-yl)-2,2-difluoro-ethanone]
- IC50 (human JAK3): 501 to 1000 nM
- IC50 [1, 3]: > 1000 nM
- IC50 (human JAK1): 0.01 to 100 nM

SMILES: CCc1cc(C2CN(C(=O)C(F)(F)F)C2)ncc1N(C)c1cc2c(cn1)ncn2C [Compound 334, 1-(3-{4-Ethyl-5-[methyl-(1-methyl-1H-imidazo[4,5-c]pyridin-6-yl)-amino]-pyridin-2-yl}-azetidin-1-yl)-2,2,2-trifluoro-ethanone]
- IC50 (human JAK3): 101 to 500 nM
- IC50 [1, 3]: > 1000 nM
- IC50 (human JAK1): 0.01 to 100 nM

SMILES: CCc1cc(CNS(=O)(=O)C(F)F)ncc1N(C)c1cc2c(cn1)ncn2C [Compound 343, N-{4-Ethyl-5-[methyl-(1-methyl-1H-imidazo[4,5-c]pyridin-6-yl)-amino]-pyridin-2-ylmethyl}-C,C-difluoro-methane sulfonamide]
- IC50 (human JAK3): 101 to 500 nM
- IC50 [1, 3]: 501 to 1000 nM
- IC50 (human JAK1): 0.01 to 100 nM

SMILES: CCc1ccccc1N(CC(F)F)c1cc2c(cn1)ncn2C [Compound 463, N-(2,2-difluoroethyl)-N-(2-ethylphenyl)-1-methyl-1H-imidazo[4,5-c]pyridin-6-amine]
- IC50 (human JAK3): 101 to 500 nM
- IC50 [1, 3]: > 1000 nM
- IC50 (human JAK1): 0.01 to 100 nM
